From patent US20110251286A1, “Crystalline salts and/or co-crystals of O-desmethyltramadol” (GRUENENTHAL GmbH, priority 2010, published 2011)

What was measured:
[1] = Dynamic vapor sorption (DVS): sorption and desorption of moisture; assay type: physicochemical
Experimental: Investigations on the sorption and desorption of moisture (dynamic vapor sorption, DVS): DVS measurements were carried out on an apparatus of the type DVS 1000 from Porotec. The evaluation of the measurements was carried out using software from Surface Measurement Systems. At a temperature between 23° C. and 26° C., starting from a relative humidity of 50%, within 240 minutes the relative humidity first increased to 90% and then fell to 0%. This cycle was repeated a second time. The DVS charts shown are isothermal recordings (plots) of the change in the mass in % (change in mass—dry) as a function of the desired relative humidity in % (target RH). Correspondingly, the axes of the graphs are marked by ΔM [%] and RH [%]. The measurement curves of the first sorption are designated by 1-S, the subsequent first desorption by 1-D, the second sorption by 2-S and the second desorption by 2-D. Advantageously, mass changes between the sorption and desorption phase are as low as possible.

[2] = Release in artificial intestinal juice; assay type: physicochemical; conditions: in artificial intestinal juice
Experimental: Investigations on release were carried out in a Sotax AT7 smart release apparatus with UV measurement (Perkin Elmer photometer).
A vessel with Wood apparatus was used (for intrinsic release).
A pressing of 0.5 cm^2 surface area (diameter 8 mm) was produced with a force of 200 N using approximately 100 mg of active ingredient.
Release was carried out in a release medium, which is composed as described below: • Intestinal juice without pancreas powder, pH 6.8 (analogous to Ph. Eur.); 250.0 ml 6.8 g of potassium dihydrogenphosphate R+0.896 g of NaOH+water to 1000.0 ml.
Release was carried out in a release volume of in each case 500±5 ml at a temperature of the release medium of 37±1° C. with a stirring speed of 100±5 rpm.
The content determination was carried out by means of spectroscopic methods (UV spectroscopy, wavelength: 271 nm, cuvette: 10 mm). Sample taking was carried out manually.
In this release experiment, the individual compounds were placed in a permeable bag in an amount in each case calculated on 100 mg of the free base.
The results, expressed in percent of the substance released, are reproduced in the following tables. In this case, the compounds denote: HCl: hydrochloride; A: cinnamate; B: palmitate; C: decanoate; E: hemi-fumarate and F: hemi-sebacate.

O=C(O)/C=C/c1ccccc1 [cinnamate]
ΔM Desorption ([1]; 1st cycle, RH 0.0 %): 0.0012% | ΔM Desorption ([1]; 1st cycle, RH 10.0 %): 0.0432% | ΔM Desorption ([1]; 1st cycle, RH 20.0 %): 0.0766% | ΔM Desorption ([1]; 1st cycle, RH 30.0 %): 0.1106% | ΔM Desorption ([1]; 1st cycle, RH 40.0 %): 0.1370% | ΔM Desorption ([1]; 1st cycle, RH 50.0 %): 0.1624% | ΔM Hysteresis ([1]; 1st cycle, RH 50.0 %): −0.0006% | ΔM Sorption ([1]; 1st cycle, RH 50.0 %): 0.1629% | ΔM Desorption ([1]; 1st cycle, RH 60.0 %): 0.2010% | ΔM Hysteresis ([1]; 1st cycle, RH 60.0 %): −0.0299% | ΔM Sorption ([1]; 1st cycle, RH 60.0 %): 0.2309% | ΔM Desorption ([1]; 1st cycle, RH 70.0 %): 0.2562% | ΔM Hysteresis ([1]; 1st cycle, RH 70.0 %): −0.0081% | ΔM Sorption ([1]; 1st cycle, RH 70.0 %): 0.2643% | ΔM Desorption ([1]; 1st cycle, RH 80.0 %): 0.2988% | ΔM Hysteresis ([1]; 1st cycle, RH 80.0 %): 0.0150% | ΔM Sorption ([1]; 1st cycle, RH 80.0 %): 0.2839% | ΔM Desorption ([1]; 1st cycle, RH 90.0 %): 0.3057% | ΔM Sorption ([1]; 1st cycle, RH 90.0 %): 0.3057% | ΔM Desorption ([1]; 2nd cycle, RH 0.0 %): −0.0605% | ΔM Sorption ([1]; 2nd cycle, RH 0.0 %): 0.0012% | ΔM Desorption ([1]; 2nd cycle, RH 10.0 %): −0.0253% | ΔM Hysteresis ([1]; 2nd cycle, RH 10.0 %): −0.0610% | ΔM Sorption ([1]; 2nd cycle, RH 10.0 %): 0.0357% | ΔM Desorption ([1]; 2nd cycle, RH 20.0 %): 0.0046% | ΔM Hysteresis ([1]; 2nd cycle, RH 20.0 %): −0.0576% | ΔM Sorption ([1]; 2nd cycle, RH 20.0 %): 0.0622% | ΔM Desorption ([1]; 2nd cycle, RH 30.0 %): 0.0322% | ΔM Hysteresis ([1]; 2nd cycle, RH 30.0 %): −0.0576% | ΔM Sorption ([1]; 2nd cycle, RH 30.0 %): 0.0898% | ΔM Desorption ([1]; 2nd cycle, RH 40.0 %): 0.0605% | ΔM Hysteresis ([1]; 2nd cycle, RH 40.0 %): −0.0553% | ΔM Sorption ([1]; 2nd cycle, RH 40.0 %): 0.1157% | ΔM Desorption ([1]; 2nd cycle, RH 50.0 %): 0.0881% | ΔM Hysteresis ([1]; 2nd cycle, RH 50.0 %): −0.0530% | ΔM Sorption ([1]; 2nd cycle, RH 50.0 %): 0.1411% | ΔM Desorption ([1]; 2nd cycle, RH 60.0 %): 0.1169% | ΔM Hysteresis ([1]; 2nd cycle, RH 60.0 %): −0.0461% | ΔM Sorption ([1]; 2nd cycle, RH 60.0 %): 0.1629% | ΔM Desorption ([1]; 2nd cycle, RH 70.0 %): 0.1480% | ΔM Hysteresis ([1]; 2nd cycle, RH 70.0 %): −0.0248% | ΔM Sorption ([1]; 2nd cycle, RH 70.0 %): 0.1727% | ΔM Desorption ([1]; 2nd cycle, RH 80.0 %): 0.1658% | ΔM Hysteresis ([1]; 2nd cycle, RH 80.0 %): −0.0052% | ΔM Sorption ([1]; 2nd cycle, RH 80.0 %): 0.1710% | ΔM Desorption ([1]; 2nd cycle, RH 90.0 %): 0.1532% | ΔM Sorption ([1]; 2nd cycle, RH 90.0 %): 0.1532% | ΔM Sorption ([1]; 3rd cycle, RH 0.0 %): −0.0605% | ΔM Sorption ([1]; 3rd cycle, RH 10.0 %): −0.0190% | ΔM Sorption ([1]; 3rd cycle, RH 20.0 %): 0.0104% | ΔM Sorption ([1]; 3rd cycle, RH 30.0 %): 0.0345% | ΔM Sorption ([1]; 3rd cycle, RH 40.0 %): 0.0599% | ΔM Sorption ([1]; 3rd cycle, RH 50.0 %): 0.0829% | release rate compared to the hydrochloride salt [2]: decreased release rates compared to the hydrochloride salt

CN(C)CC1CCCCC1(O)c1cccc(O)c1.CN(C)CC1CCCCC1(O)c1cccc(O)c1.O=C(O)CCCCCCCCC(=O)O (stereo not drawn) [hemi-sebacate]
ΔM Desorption ([1]; DVS 1st cycle, RH 0.0%): 0.0000% | ΔM Desorption ([1]; DVS 1st cycle, RH 10.0%): 0.0235% | ΔM Desorption ([1]; DVS 1st cycle, RH 20.0%): 0.0308% | ΔM Desorption ([1]; DVS 1st cycle, RH 30.0%): 0.0323% | ΔM Desorption ([1]; DVS 1st cycle, RH 40.0%): 0.0338% | ΔM Desorption ([1]; DVS 1st cycle, RH 50.0%): 0.0323% | ΔM Hysteresis ([1]; DVS 1st cycle, RH 50.0%): −0.0382% | ΔM Sorption ([1]; DVS 1st cycle, RH 50.0%): 0.0704% | ΔM Desorption ([1]; DVS 1st cycle, RH 60.0%): 0.0293% | ΔM Hysteresis ([1]; DVS 1st cycle, RH 60.0%): −0.0396% | ΔM Sorption ([1]; DVS 1st cycle, RH 60.0%): 0.0690% | ΔM Desorption ([1]; DVS 1st cycle, RH 70.0%): 0.0220% | ΔM Hysteresis ([1]; DVS 1st cycle, RH 70.0%): −0.0132% | ΔM Sorption ([1]; DVS 1st cycle, RH 70.0%): 0.0352% | ΔM Desorption ([1]; DVS 1st cycle, RH 80.0%): 0.0088% | ΔM Hysteresis ([1]; DVS 1st cycle, RH 80.0%): 0.0205% | ΔM Sorption ([1]; DVS 1st cycle, RH 80.0%): −0.0117% | ΔM Desorption ([1]; DVS 1st cycle, RH 90.0%): −0.0499% | ΔM Sorption ([1]; DVS 1st cycle, RH 90.0%): −0.0499% | ΔM Desorption ([1]; DVS 2nd cycle, RH 0.0%): 0.1585% | ΔM Sorption ([1]; DVS 2nd cycle, RH 0.0%): 0.0000% | ΔM Desorption ([1]; DVS 2nd cycle, RH 10.0%): 0.1790% | ΔM Hysteresis ([1]; DVS 2nd cycle, RH 10.0%): 0.1438% | ΔM Sorption ([1]; DVS 2nd cycle, RH 10.0%): 0.0352% | ΔM Desorption ([1]; DVS 2nd cycle, RH 20.0%): 0.1834% | ΔM Hysteresis ([1]; DVS 2nd cycle, RH 20.0%): 0.1291% | ΔM Sorption ([1]; DVS 2nd cycle, RH 20.0%): 0.0543% | ΔM Desorption ([1]; DVS 2nd cycle, RH 30.0%): 0.1878% | ΔM Hysteresis ([1]; DVS 2nd cycle, RH 30.0%): 0.1174% | ΔM Sorption ([1]; DVS 2nd cycle, RH 30.0%): 0.0704% | ΔM Desorption ([1]; DVS 2nd cycle, RH 40.0%): 0.1922% | ΔM Hysteresis ([1]; DVS 2nd cycle, RH 40.0%): 0.1042% | ΔM Sorption ([1]; DVS 2nd cycle, RH 40.0%): 0.0880% | ΔM Desorption ([1]; DVS 2nd cycle, RH 50.0%): 0.1849% | ΔM Hysteresis ([1]; DVS 2nd cycle, RH 50.0%): 0.0880% | ΔM Sorption ([1]; DVS 2nd cycle, RH 50.0%): 0.0968% | ΔM Desorption ([1]; DVS 2nd cycle, RH 60.0%): 0.1761% | ΔM Hysteresis ([1]; DVS 2nd cycle, RH 60.0%): 0.0704% | ΔM Sorption ([1]; DVS 2nd cycle, RH 60.0%): 0.1057% | ΔM Desorption ([1]; DVS 2nd cycle, RH 70.0%): 0.1629% | ΔM Hysteresis ([1]; DVS 2nd cycle, RH 70.0%): 0.0719% | ΔM Sorption ([1]; DVS 2nd cycle, RH 70.0%): 0.0910% | ΔM Desorption ([1]; DVS 2nd cycle, RH 80.0%): 0.1350% | ΔM Hysteresis ([1]; DVS 2nd cycle, RH 80.0%): 0.0616% | ΔM Sorption ([1]; DVS 2nd cycle, RH 80.0%): 0.0734% | ΔM Desorption ([1]; DVS 2nd cycle, RH 90.0%): 0.0484% | ΔM Sorption ([1]; DVS 2nd cycle, RH 90.0%): 0.0484% | ΔM Sorption ([1]; DVS 3rd cycle (partial), RH 0.0%): 0.1585% | ΔM Sorption ([1]; DVS 3rd cycle (partial), RH 10.0%): 0.1937% | ΔM Sorption ([1]; DVS 3rd cycle (partial), RH 20.0%): 0.2113% | ΔM Sorption ([1]; DVS 3rd cycle (partial), RH 30.0%): 0.2245% | ΔM Sorption ([1]; DVS 3rd cycle (partial), RH 40.0%): 0.2377% | ΔM Sorption ([1]; DVS 3rd cycle (partial), RH 50.0%): 0.2465% | release rate compared to the hydrochloride salt [2]: decreased release rates compared to the hydrochloride salt
